Measurements from paper PMC12796071, “Evaluation of [^18F]MNI-1054, a novel PET ligand for lysine-specific histone demethylase 1A (LSD1), in non-human primates” (EJNMMI Research, 2025).
Entries after “also recorded” stand apart in the source; their conditions may differ.

Biological target: LSD1 (Macaca mulatta, UniProt I2CUD2)
Assay: Brain PET imaging and kinetic analysis of [18F]MNI-1054 (irreversible 2TCM, Patlak)
Type: in vivo
Design: from tissue; host or cells: brain of living rhesus monkeys (M1, M2), in vivo PET
Settings: for Average Ki bias (SD) versus full 180-min scan: baseline studies; for Ki Baseline: cerebellum
Procedure: All brain scans were collected over 3 h on a microPET Focus 220 PET scanner (Siemens), with injected doses in the range 167.61–185 MBq. A transmission scan with an external Germanium-68 source was performed prior to the emission scans to estimate attenuation correction coefficients. Discrete arterial blood samples (n = 18–21) were taken throughout the scans to measure the parent fraction, plasma free fraction as well as total plasma and whole-blood activity for tracer kinetic modeling. Detailed procedures are provided in the Supplement.
M1 and M2 each completed a scan at baseline to assess brain penetration and kinetics and to serve as reference for the blocking and displacement studies. A self-block study with cold 3 mg/kg MNI-1054, starting 5 min prior to [^18F]MNI-1054 administration, was conducted in M1 to assess regional differences in non-specific binding.
Blocking studies with the LSD1 inhibitor TAK-418 ([…]) were performed to measure the dose-occupancy relationship for this compound. For blocking studies, TAK-418 was administered intravenously 2 h prior to [^18F]MNI-1054. Prior to conducting these blocking studies, a displacement study with TAK-418 (3 mg/kg) was performed to confirm irreversible tracer binding, in which TAK-418 was administered 1.5 h post [^18F]MNI-1054 administration. For all studies involving TAK-418, the test article was administered intravenously over 5 min. Due to the irreversible binding of these compounds to LSD1, the time taken for the enzyme to re-populate was investigated by imaging one animal (M2) with [^18F]MNI-1054 at 24 and 48 h post TAK-418 treatment (0.3 mg/kg). Each animal also underwent a high-resolution T1-weighted structural brain MRI scan with a 3-D MPRAGE sequence on a separate day for anatomical reference.
Emission data were reconstructed with filtered back projection into a series of 45 temporal frames (6 × 30, 3 × 60, 2 × 120, 34 × 300 s). For each frame, reconstructed images had dimensions of 256 × 256 × 95, voxel size of 0.949 × 0.949 × 0.796 mm and units of kBq/mL. All standard corrections were applied including normalization, random, scatter, dead-time, and attenuation. Dynamic brain PET images were analyzed using an in-house processing pipeline incorporating functionalities from FSL [18] and AFNI [19] as well as custom developed Matlab scripts (Mathworks Inc., Natick, MA, USA). Key steps of the workflow included rigidly aligning the PET images to the same animal’s brain MRI scan and spatially normalizing the MRI volume to the INIA19 [20] and NMT2.0 [21, 22] rhesus MR templates. Volumes of interest (VOIs) masks defined in rhesus MR template spaces were then inverse warped and applied to the PET images in their native orientation to compute time-activity curves (TACs) for the following regions: occipital lobe, temporal lobe, frontal lobe, parietal lobe, olfactory cortex, amygdala, cingulate, hippocampus, thalamus, hypothalamus, cerebellar grey matter, pons, striatum, nucleus accumbens and cerebral white matter. Lobar VOI masks were restricted to grey matter only. All VOI masks were derived from the INIA19 atlas, with the exception of the pons mask which was obtained from the NMT2.0 atlas (Fig. S.2.). The average activity concentration (kBq/mL) within each VOI was determined and TACs representing the regional brain activity concentration over time were generated. Brain TACs and images were presented in SUV units [g/mL] by normalizing activity concentration data [kBq/mL] by the animal’s weight [kg] and injected activity [MBq].
Regional TACs were modeled with an irreversible 2-tissue compartmental model (‘2TCM’) (k4 = 0) with the arterial input function to determine the tracer binding parameters Ki [mL/cm^3/min] (where Ki= K1. k3/(k2 + k3)) and λ.k3 (where λ = K1/k2), a parameter independent of blood flow and proportional to LSD1 binding site density via k3. […]

[1] = irreversible 2TCM, across all scans and regions

Compound: Cc1cc([18F])ncc1C(=O)Nc1ccc([C@@H]2C[C@H]2NCC2CC2)cc1 [[^18F]MNI-1054]
- displacement of tracer (change in TACs) (3.0 mg/kg TAK-418 given 90 min post tracer injection, M1): no observable change in the TACs; also recorded: did not displace
- Average Ki bias (SD) versus full 180-min scan (120-min scan duration): 8.3 +/- 6.1%
- Average Ki bias (SD) versus full 180-min scan (150-min scan duration): 3.2 +/- 2.8%
- difference Ki,Patlak versus Ki,2TCMirrev, mean +/- SD (Patlak t* = 30 min, all studies and regions): −0.00494 +/- 0.00348 mL/cm^3/min
- Regional Ki in displacement study compared with baseline (TAK-418 3 mg/kg 1.5 h post tracer, same animal): did not substantially vary
- Ki Baseline (animal M1): 0.058 mL/cm^3/min
- Ki Baseline (animal M2): 0.047 mL/cm^3/min
- k2/k3, max [1]: 194.4
- k2/k3, mean (SD) [1]: 24.7 (28.6)
- k2/k3, min [1]: 6.1
